Key:
Format in all cases: in vivo
[1] = system: wheat powdery mildew (Blumeria graminis); test: Field test of intensity of attack on winter wheat; conditions: 125 g of active ingredient/ha per application (A and B), 52 days after Application B, winter wheat field plots
Method: (§1) The compounds were tested for their activity against wheat powdery mildew (Blumeda graminis).
(§2) Winter wheat (Appolo variety) was planted in France (department of Marne) in 1 m^2 plots, at the rate of 200 kg/ha (soil: coloured rendzina) at a depth of 3 cm. The compounds of the invention were applied to the wheat plants in two portions: Application A at the 1 cm ear stage and then Application B at the second visible node stage. Each of these applications was carried out by spraying an aqueous solution of the compounds at a dose of 125 g of active ingredient/ha.
(§3) During Application A, the intensity of attack by the fungus Blumeria graminis is estimated at 3% of the total foliar volume.
The tests of intensity of attack are carried out 52 days after Application B by evaluating the percentage of affected surface area of the second leaves (counted from the ear).

[2] = system: wheat powdery mildew (Blumeria graminis); test: Field test of frequency of attack on winter wheat; conditions: 125 g of active ingredient/ha per application (A and B), same conditions as Table 1
Method: as §1, §2, §3
Under the same conditions, a test of frequency of attack was performed by evaluating the percentage of second leaf (from the ear) attacked by the fungus Blumeria graminis.

[3] = system: powdery mildew (Blumeria graminis f. sp. tritici) strains resistant to strobilurin derivatives; test: Greenhouse test on pathogenic strains resistant to strobilurin derivatives; conditions: wheat, 13 days of incubation
Method: This example gives an illustration of the biological efficacy of the compounds of formula (I) on pathogenic strains resistant to strobilurin derivatives.
The experiment was performed in a greenhouse.
Resistant strains were isolated and samples taken in 2001 in the north of Germany in the Bremen region in a place treated with pyraclostrobin and with picoxystrobin. These strains are characterized by their resistance to these strobilurin-type compounds. They were then kept in a controlled-environment chamber on wheat plants (Kanzler variety) treated with trifloxystrobin.
The tested compounds were sprayed on the wheat plants using solutions for application diluted in water to a volume equivalent to 250 l/ha. 24 h later, the plants were inoculated with powdery mildew (Blumeria graminis f. sp. tritici).
The extent of the disease was evaluated on each plant after 13 days of incubation.

[4] = system: wheat powdery mildew (Blumeria graminis f. sp. tritici); test: Greenhouse preventive synergy test, wheat powdery mildew
Method: (§4) This example gives an illustration of the synergistic effect obtained using the compounds according to the invention in the form of a mixture with compounds of the strobilurin type, in particular trifloxystrobin, triazole, in particular fluquinconazole. The compounds according to the invention were tested in a greenhouse under preventive conditions.
(§5) The combinations of active ingredients in Table 4 were evaluated.
(§6) The compounds and mixtures tested were sprayed on wheat plants:
(§7) volume for application equivalent to 250 l/ha.
(§8) On the day following the application, the wheat plants were inoculated with powdery mildew (Blumeria graminis f. sp. tritici), brown rust (Puccinia recondita), glume blotches (Septoria tritici and Septoria nodorum) and the barley plants with powdery mildew (Blumeria graminis f. sp. hordei). Once the diseases had developed, the evaluation was made by determining the extent of disease per pot.
(§9) The level of synergy was calculated using the Colby formula in order to calculate the theoretical efficacy and to compare it to the observed efficacy:
(§10) Theoretical efficacy of A+B=efficacy of A (%)+efficacy of B (%)−[efficacy of A (%)×efficacy of B (%)/100]

[5] = system: barley powdery mildew (Blumeria graminis f. sp. hordei); test: Greenhouse preventive synergy test, barley powdery mildew
Method: as §4, §5, §6, §7, §8, §9, §10

[6] = system: wheat brown rust (Puccinia recondita); test: Greenhouse preventive synergy test, wheat brown rust
Method: as §4, §5, §6, §7, §8, §9, §10

[7] = system: wheat glume blotch (Septoria tritici); test: Greenhouse preventive synergy test, wheat glume blotch (Septoria tritici)
Method: as §4, §5, §6, §7, §8, §9, §10

[8] = system: wheat glume blotch (Septoria nodorum); test: Greenhouse preventive synergy test, wheat glume blotch (Septoria nodorum)
Method: as §4, §5, §6, §7, §8, §9, §10

Row | SMILES | % affected surface area per (second) leaf [1] | % of second leaf attacked [2] | Percentage of leaves affected by powdery mildew ([3]; 31 g/ha) | Percentage of leaves affected by powdery mildew ([3]; 62 g/ha) | Observed efficacy ([4]; Table 5, 6 g/ha) | Observed efficacy ([4]; Table 10, 16 g/ha) | Observed efficacy ([5]; Table 6, 12 g/ha) | Observed efficacy ([5]; Table 11, 16 g/ha) | also measured
1 | CCCc1c(OCC)oc2ccc(I)cc2c1=O [Compound 1, 2-ethoxy-6-iodo-3-propylbenzopyran-4-one] | 0.56% | 28.0% | 0% | 0% | 25% | 50% | 50% | 50% | Observed efficacy ([4]; Table 10, 6 g/ha): 25%; Observed efficacy ([4]; Table 10, 25 g/ha): 75%; Observed efficacy ([5]; Table 11, 25 g/ha): 75%; Observed efficacy ([6]; Table 7, 50 g/ha): 0%; Observed efficacy ([7]; Table 8, 50 g/ha): 0%; Observed efficacy ([8]; Table 9, 50 g/ha): 0%
2 | O=c1c2cc(F)ccc2nc(-n2cncn2)n1-c1ccc(Cl)cc1Cl [fluquinconazole] |  |  |  |  | 0% |  | 25% |  | Observed efficacy ([4]; Table 5, 12 g/ha): 0%; Observed efficacy ([4]; Table 5, 31 g/ha): 0%; Observed efficacy ([5]; Table 6, 25 g/ha): 25%; Observed efficacy ([5]; Table 6, 62 g/ha): 75%; Observed efficacy ([6]; Table 7, 100 g/ha): 60%; Observed efficacy ([7]; Table 8, 100 g/ha): 60%; Observed efficacy ([8]; Table 9, 100 g/ha): 75%
3 | CCCOc1oc2ccc(I)cc2c(=O)c1CCC [Compound 2, 6-iodo-2-propoxy-3-propylbenzopyran-4-one] | 2.53% |  |  |  |  |  |  |  | 
4 | Fc1ccc(Oc2ccnc3cc(Cl)cc(Cl)c23)cc1 [Compound B, quinoxyfen] | 4.91% | 73.3% |  |  |  |  |  |  | 
5 | CCCCOc1oc2ccc(I)cc2c(=O)c1CCC [Compound 3, 2-butoxy-6-iodo-3-propylbenzopyran-4-one] | 2.51% | 54.0% |  |  |  |  |  |  | 
6 | CON=C(C(=O)OC)c1ccccc1CON=C(C)c1cccc(C(F)(F)F)c1 [Trifloxystrobin] |  |  | 100% | 100% |  | 30% |  | 0% | Percentage of leaves affected by powdery mildew ([3]; 125 g/ha): 100%; Percentage of leaves affected by powdery mildew ([3]; 250 g/ha): 100%; Observed efficacy ([4]; Table 10, 31 g/ha): 40%; Observed efficacy ([4]; Table 10, 62 g/ha): 50%; Observed efficacy ([5]; Table 11, 62 g/ha): 0%

From patent publication US20040192672A1, “Iodobenzopyran-4-one derivatives having fungicidal activity” (priority 2001, published 2004)
